Measured values reported in PubChem BioAssay (NCI).
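Compound exposure: 48 hours, 5 concentrations, 96-well plates. TGI is the concentration that stops growth completely.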

How the values were obtained:
Assay in all cases: growth of human tumour cells (NCI), 48 h
NCI-H23 lung = system: NCI-H23 lung
SF-268 CNS = system: SF-268 CNS
786-0 renal = system: 786-0 renal
LXFL 529 NSCLC = system: LXFL 529 NSCLC
SK-OV-3 ovarian = system: SK-OV-3 ovarian
NCI-H460 lung = system: NCI-H460 lung
M19-MEL melanoma = system: M19-MEL melanoma
M14 melanoma = system: M14 melanoma
COLO 205 colon = system: COLO 205 colon
HCT-116 colon = system: HCT-116 colon
DMS 114 small cell lung = system: DMS 114 small cell lung
RPMI-8226 leukemia = system: RPMI-8226 leukemia
A498 renal = system: A498 renal
HOP-18 NSCLC = system: HOP-18 NSCLC
HCC-2998 colon = system: HCC-2998 colon
UACC-62 melanoma = system: UACC-62 melanoma
SK-MEL-28 melanoma = system: SK-MEL-28 melanoma
K-562 leukemia = system: K-562 leukemia
U251 CNS = system: U251 CNS
SK-MEL-2 melanoma = system: SK-MEL-2 melanoma
DLD-1 colon = system: DLD-1 colon
TK-10 renal = system: TK-10 renal
A549 NSCLC = system: A549 NSCLC
HL-60(TB) leukemia = system: HL-60(TB) leukemia
DMS 273 small cell lung = system: DMS 273 small cell lung
CCRF-CEM leukemia = system: CCRF-CEM leukemia
HOP-92 NSCLC = system: HOP-92 NSCLC
SNB-78 CNS = system: SNB-78 CNS
OVCAR-3 ovarian = system: OVCAR-3 ovarian
XF 498 CNS = system: XF 498 CNS
UACC-257 melanoma = system: UACC-257 melanoma
SF-295 CNS = system: SF-295 CNS
SW-620 colon = system: SW-620 colon
KM20L2 colon = system: KM20L2 colon
CAKI-1 renal = system: CAKI-1 renal
OVCAR-8 ovarian = system: OVCAR-8 ovarian
ACHN renal = system: ACHN renal
EKVX NSCLC = system: EKVX NSCLC
MDA-MB-435 = system: MDA-MB-435
HCT-15 colon = system: HCT-15 colon
MDA-N = system: MDA-N
T-47D breast = system: T-47D breast
SR leukemia = system: SR leukemia
LOX IMVI melanoma = system: LOX IMVI melanoma
MCF7 breast = system: MCF7 breast
DU-145 prostate = system: DU-145 prostate
OVCAR-5 ovarian = system: OVCAR-5 ovarian
SN12C renal = system: SN12C renal
UO-31 renal = system: UO-31 renal
KM12 colon = system: KM12 colon
OVCAR-4 ovarian = system: OVCAR-4 ovarian
RXF 393 renal = system: RXF 393 renal
SK-MEL-5 melanoma = system: SK-MEL-5 melanoma
HT29 colon = system: HT29 colon
NCI-H226 lung = system: NCI-H226 lung
NCI-H522 lung = system: NCI-H522 lung
IGROV1 ovarian = system: IGROV1 ovarian
MALME-3M melanoma = system: MALME-3M melanoma
SF-539 CNS = system: SF-539 CNS
HS 578T breast = system: HS 578T breast
SNB-19 CNS = system: SNB-19 CNS
HOP-62 NSCLC = system: HOP-62 NSCLC
NCI/ADR-RES ovarian = system: NCI/ADR-RES ovarian
MOLT-4 leukemia = system: MOLT-4 leukemia
SNB-75 CNS = system: SNB-75 CNS
BT-549 breast = system: BT-549 breast
PC-3 prostate = system: PC-3 prostate
MDA-MB-231 breast = system: MDA-MB-231 breast
RXF-631 renal = system: RXF-631 renal

NC(=O)C(=O)n1ncc(Cl)c(Cl)c1=O
TGI (NCI-H23 lung): 52.9 µM
TGI (SF-268 CNS): > 92.9 µM
TGI (786-0 renal): 58.5 µM
TGI (LXFL 529 NSCLC): 29 µM
TGI (SK-OV-3 ovarian): > 100 µM
TGI (NCI-H460 lung): > 100 µM
TGI (M19-MEL melanoma): > 65.3 µM
TGI (M14 melanoma): 46.9 µM
TGI (COLO 205 colon): > 51.1 µM
TGI (HCT-116 colon): 55.3 µM
TGI (DMS 114 small cell lung): 36.6 µM
TGI (RPMI-8226 leukemia): 51.9 µM
TGI (A498 renal): > 100 µM
TGI (HOP-18 NSCLC): 35.1 µM
TGI (HCC-2998 colon): 32.1 µM
TGI (UACC-62 melanoma): 54.4 µM
TGI (SK-MEL-28 melanoma): 30.5 µM
TGI (K-562 leukemia): 47 µM
TGI (U251 CNS): > 60.3 µM
TGI (SK-MEL-2 melanoma): 30.8 µM
TGI (DLD-1 colon): 47.7 µM
TGI (TK-10 renal): 50.8 µM
TGI (A549 NSCLC): > 100 µM
TGI (HL-60(TB) leukemia): 17.7 µM
TGI (DMS 273 small cell lung): > 100 µM
TGI (CCRF-CEM leukemia): 26.1 µM
TGI (HOP-92 NSCLC): > 57.8 µM
TGI (SNB-78 CNS): 49.8 µM
TGI (OVCAR-3 ovarian): 50.8 µM
TGI (XF 498 CNS): 31.6 µM
TGI (UACC-257 melanoma): 58.4 µM
TGI (SF-295 CNS): 20.3 µM
TGI (SW-620 colon): 35.3 µM
TGI (KM20L2 colon): > 90.8 µM
TGI (CAKI-1 renal): 43.5 µM
TGI (OVCAR-8 ovarian): 65.9 µM
TGI (ACHN renal): 55.7 µM
TGI (EKVX NSCLC): 67.5 µM
TGI (MDA-MB-435): > 100 µM
TGI (HCT-15 colon): > 76.4 µM
TGI (MDA-N): > 100 µM
TGI (T-47D breast): > 100 µM
TGI (SR leukemia): > 49.7 µM
TGI (LOX IMVI melanoma): 56.6 µM
TGI (MCF7 breast): > 100 µM
TGI (DU-145 prostate): > 100 µM
TGI (OVCAR-5 ovarian): 63.1 µM
TGI (SN12C renal): 40.8 µM
TGI (UO-31 renal): 48.1 µM
TGI (KM12 colon): 62.5 µM
TGI (OVCAR-4 ovarian): 46.9 µM
TGI (RXF 393 renal): > 43.1 µM
TGI (SK-MEL-5 melanoma): 39.4 µM
TGI (HT29 colon): 44.4 µM
TGI (NCI-H226 lung): > 100 µM
TGI (NCI-H522 lung): 20.6 µM
TGI (IGROV1 ovarian): > 77.4 µM
TGI (MALME-3M melanoma): 38.7 µM
TGI (SF-539 CNS): 86.1 µM
TGI (HS 578T breast): > 100 µM
TGI (SNB-19 CNS): > 100 µM
TGI (HOP-62 NSCLC): > 100 µM
TGI (NCI/ADR-RES ovarian): > 100 µM
TGI (MOLT-4 leukemia): 20.4 µM
TGI (SNB-75 CNS): > 69.7 µM

O=S1(=O)CCN(c2ccccc2CC(c2c[nH]c3ccccc23)c2c[nH]c3ccccc23)CC1
TGI (NCI-H23 lung): 22.6 µM
TGI (SF-268 CNS): 62.2 µM
TGI (786-0 renal): 27.8 µM
TGI (LXFL 529 NSCLC): 25.7 µM
TGI (SK-OV-3 ovarian): > 79 µM
TGI (NCI-H460 lung): 13 µM
TGI (M19-MEL melanoma): 23 µM
TGI (M14 melanoma): 20.5 µM
TGI (BT-549 breast): 37.3 µM
TGI (COLO 205 colon): 8.23 µM
TGI (HCT-116 colon): 16.5 µM
TGI (DMS 114 small cell lung): > 100 µM
TGI (RPMI-8226 leukemia): 5.01 µM
TGI (A498 renal): 39.9 µM
TGI (HOP-18 NSCLC): 32.7 µM
TGI (HCC-2998 colon): 8.09 µM
TGI (UACC-62 melanoma): 18.9 µM
TGI (SK-MEL-28 melanoma): 28.8 µM
TGI (PC-3 prostate): 13.2 µM
TGI (K-562 leukemia): 45.1 µM
TGI (U251 CNS): 24 µM
TGI (SK-MEL-2 melanoma): 21.1 µM
TGI (DLD-1 colon): 21.4 µM
TGI (TK-10 renal): 19.8 µM
TGI (A549 NSCLC): > 78.2 µM
TGI (HL-60(TB) leukemia): 12.7 µM
TGI (DMS 273 small cell lung): 37.5 µM
TGI (CCRF-CEM leukemia): 11.1 µM
TGI (HOP-92 NSCLC): 25.3 µM
TGI (SNB-78 CNS): 74.3 µM
TGI (OVCAR-3 ovarian): 20.9 µM
TGI (MDA-MB-231 breast): 25.1 µM
TGI (UACC-257 melanoma): 18 µM
TGI (SF-295 CNS): 49.9 µM
TGI (SW-620 colon): 21.1 µM
TGI (KM20L2 colon): 27.8 µM
TGI (CAKI-1 renal): > 85.2 µM
TGI (OVCAR-8 ovarian): 39.7 µM
TGI (ACHN renal): > 91.7 µM
TGI (EKVX NSCLC): 55.7 µM
TGI (MDA-MB-435): > 31.7 µM
TGI (HCT-15 colon): 36.3 µM
TGI (MDA-N): 18.2 µM
TGI (T-47D breast): > 100 µM
TGI (SR leukemia): 20.1 µM
TGI (LOX IMVI melanoma): 11.6 µM
TGI (MCF7 breast): > 100 µM
TGI (DU-145 prostate): 35.4 µM
TGI (OVCAR-5 ovarian): 54.9 µM
TGI (SN12C renal): 24.1 µM
TGI (UO-31 renal): 72 µM
TGI (KM12 colon): 13.5 µM
TGI (OVCAR-4 ovarian): > 63.7 µM
TGI (RXF 393 renal): 28.8 µM
TGI (SK-MEL-5 melanoma): 19.8 µM
TGI (HT29 colon): 23.3 µM
TGI (NCI-H226 lung): 42.7 µM
TGI (NCI-H522 lung): 17.2 µM
TGI (IGROV1 ovarian): 33.4 µM
TGI (MALME-3M melanoma): 43.7 µM
TGI (SF-539 CNS): 32 µM
TGI (HS 578T breast): 42.7 µM
TGI (SNB-19 CNS): > 100 µM
TGI (HOP-62 NSCLC): 35.7 µM
TGI (NCI/ADR-RES ovarian): 38.7 µM
TGI (MOLT-4 leukemia): 8.87 µM
TGI (SNB-75 CNS): 23.6 µM

c1ccc(OCCSCCCCCCCCCCSCCOc2ccccc2)cc1
TGI (NCI-H23 lung): > 100 µM
TGI (SF-268 CNS): > 100 µM
TGI (786-0 renal): > 100 µM
TGI (LXFL 529 NSCLC): > 100 µM
TGI (SK-OV-3 ovarian): > 100 µM
TGI (NCI-H460 lung): > 100 µM
TGI (M19-MEL melanoma): > 100 µM
TGI (M14 melanoma): > 100 µM
TGI (COLO 205 colon): > 100 µM
TGI (DMS 114 small cell lung): > 100 µM
TGI (RPMI-8226 leukemia): > 100 µM
TGI (A498 renal): > 100 µM
TGI (HOP-18 NSCLC): > 100 µM
TGI (HCC-2998 colon): > 100 µM
TGI (UACC-62 melanoma): > 100 µM
TGI (SK-MEL-28 melanoma): > 100 µM
TGI (K-562 leukemia): > 100 µM
TGI (U251 CNS): > 100 µM
TGI (SK-MEL-2 melanoma): > 100 µM
TGI (TK-10 renal): > 100 µM
TGI (A549 NSCLC): > 100 µM
TGI (HL-60(TB) leukemia): > 100 µM
TGI (CCRF-CEM leukemia): > 100 µM
TGI (SNB-78 CNS): > 100 µM
TGI (OVCAR-3 ovarian): > 100 µM
TGI (UACC-257 melanoma): > 100 µM
TGI (SF-295 CNS): > 100 µM
TGI (RXF-631 renal): > 100 µM
TGI (SW-620 colon): > 100 µM
TGI (KM20L2 colon): > 100 µM
TGI (OVCAR-8 ovarian): > 100 µM
TGI (ACHN renal): > 100 µM
TGI (EKVX NSCLC): > 100 µM
TGI (HCT-15 colon): > 100 µM
TGI (LOX IMVI melanoma): > 100 µM
TGI (OVCAR-5 ovarian): > 100 µM
TGI (SN12C renal): > 100 µM
TGI (UO-31 renal): > 100 µM
TGI (KM12 colon): > 100 µM
TGI (RXF 393 renal): > 100 µM
TGI (SK-MEL-5 melanoma): > 100 µM
TGI (NCI-H226 lung): > 100 µM
TGI (NCI-H522 lung): > 100 µM
TGI (IGROV1 ovarian): > 100 µM
TGI (MALME-3M melanoma): 90.4 µM
TGI (SF-539 CNS): > 100 µM
TGI (SNB-19 CNS): > 100 µM
TGI (HOP-62 NSCLC): > 100 µM
TGI (MOLT-4 leukemia): > 100 µM
TGI (SNB-75 CNS): > 100 µM
